PubChem BioAssay (NCI)
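A five-concentration, 48-hour dose response in 96-well plates underlies each endpoint, interpolated linearly between surrounding concentrations. GI50 marks 50% less growth. The concentration for full growth arrest is given as TGI.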

Key:
Experiment in all cases: NCI anticancer screen, dose series, 48 h
SF-539 CNS = system: SF-539 CNS
SR leukemia = system: SR leukemia
SNB-75 CNS = system: SNB-75 CNS
SK-MEL-28 melanoma = system: SK-MEL-28 melanoma
786-0 renal = system: 786-0 renal
LOX IMVI melanoma = system: LOX IMVI melanoma
A498 renal = system: A498 renal
SN12C renal = system: SN12C renal
NCI-H522 lung = system: NCI-H522 lung
RXF 393 renal = system: RXF 393 renal

Row | SMILES | GI50 (SF-539 CNS) [µM] | TGI (SF-539 CNS) [µM] | GI50 (SR leukemia) [µM] | TGI (SR leukemia) [µM] | GI50 (SNB-75 CNS) [µM] | TGI (SNB-75 CNS) [µM] | GI50 (SK-MEL-28 melanoma) [µM] | TGI (SK-MEL-28 melanoma) [µM] | GI50 (786-0 renal) [µM] | TGI (786-0 renal) [µM] | GI50 (LOX IMVI melanoma) [µM] | TGI (LOX IMVI melanoma) [µM] | GI50 (A498 renal) [µM] | TGI (A498 renal) [µM] | GI50 (SN12C renal) [µM] | TGI (SN12C renal) [µM] | GI50 (NCI-H522 lung) [µM] | TGI (NCI-H522 lung) [µM] | GI50 (RXF 393 renal) [µM] | TGI (RXF 393 renal) [µM]
1 | O=C([CH-]C(=O)C(F)(F)F)c1ccccc1.O=C([CH-]C(=O)C(F)(F)F)c1ccccc1.O=C([CH-]C(=O)C(F)(F)F)c1ccccc1.O=C([CH-]C(=O)C(F)(F)F)c1ccccc1.[Eu+3].c1ccncc1 | 16 | 92.8 | 3.86 | 19.7 | 6.71 | > 100 | 14.3 | > 100 | 11.9 | > 100 | 5.78 | 21 | 18.4 | 88.8 | 3.74 | 39.7 | 2.8 | 17.9 | 2.25 | 18.8
2 | CCN(CC)c1ccc2c(c1)Nc1cc(=C(C#N)C#N)c3ccccc3c1=N2 | – | > 100 | – | > 100 | – | > 100 | – | > 100 | – | > 100 | – | > 100 | – | > 100 | – | > 100 | – | > 100 | – | > 100
3 | Cn1c(=O)c2c(ncn2CN2CCN(Cn3cnc4c3c(=O)n(C)c(=O)n4C)CC2)n(C)c1=O | – | > 100 | – | > 100 | – | > 100 | – | > 100 | – | > 100 | – | 62.4 | – | > 100 | – | > 100 | – | > 100 | – | 44.1
4 | CSc1ccc(/C=C2\C=C(CC(=O)NCc3ccc(C(=O)c4ccccc4)cc3)c3cc(F)ccc32)cc1 | 0.0381 | 1.17 | 0.0306 | 26.2 | 0.0433 | 6.25 | 0.0688 | 19.8 | 0.125 | 2.66 | 0.069 | 6.47 | 0.0364 | 0.902 | 0.059 | 23 | 0.0287 | 0.211 | 0.0307 | 0.292
5 | OCC1OC(n2cnc3c(/C=C(/O)c4ccccc4)ncnc32)C(O)C1O (stereo not given) | – | > 100 | – | > 100 | – | > 25.1 | – | > 100 | – | > 100 | – | > 100 | – | > 91.1 | – | > 100 | – | 43.1 | – | > 100
6 | C[N+]1(C)C/C(=C\c2ccncc2)C(=O)/C(=C/c2ccncc2)C1 | – | > 100 | – | > 100 | – | > 100 | – | > 100 | – | > 100 | – | > 100 | – | > 100 | – | > 100 | – | 42 | – | > 100
7 | COc1cc(Cn2c(-c3nonc3N)nc3ccccc32)ccc1C | 0.226 | 0.663 | 0.516 | > 100 | 0.248 | 1.13 | 2.91 | > 62.7 | 0.55 | 23.6 | 0.649 | > 100 | 0.142 | 1.66 | 3.69 | > 100 | 0.243 | 0.735 | 0.304 | 3.35
8 | O=C1c2ccccc2-n2c1nc1ccccc1c2=O | – | 43.3 | – | > 100 | – | 83.8 | – | 50.7 | – | > 100 | – | 25.1 | – | 59.8 | – | > 68.8 | – | 64.3 | – | > 81.6
9 | Cc1cc(-c2nnc3n2CCCCC3)c(C)n1-c1ccc(Cl)c(Cl)c1 | 16.6 | 32.4 | 11 | 45.3 | 13.4 | 27.7 | 10.7 | 23.2 | 22.9 | 56.7 | 12.1 | 32.2 | 14 | 28 | 14.7 | 40.1 | 12.6 | 28.3 | 8.42 | 29.8
10 | CC(C)Oc1cc(O)c2c(c1)OCC=C2CCC(=O)O | – | – | – | > 100 | – | > 100 | – | > 100 | – | > 100 | – | > 100 | – | 56.6 | – | 69.3 | – | 59.3 | – | > 100
11 | N#C[C@@H]1C(n2ccc(N)nc2=O)O[C@H](CO)[C@H]1O (stereo not given in full) | > 100 | > 100 | 7.31 | > 100 | > 100 | > 100 | 64.2 | > 100 | 13.2 | > 100 | 11.4 | > 100 | > 100 | > 100 | 9.69 | > 100 | 4.24 | > 100 | > 100 | > 100
12 | CC1CCN(CC(=O)N2c3ccccc3Sc3cc4ccccc4cc32)CC1 | – | > 100 | – | > 100 | – | > 100 | – | > 100 | – | > 100 | – | > 100 | – | > 100 | – | > 100 | – | > 100 | – | > 100
13 | COC(=O)CCC1=C(C)/C(=C/c2[nH]c(-c3ccc[nH]3)cc2OC)N=C1C | 1.21 | 5.32 | 0.317 | 88.7 | 0.382 | 3.18 | 0.869 | 3.55 | 0.653 | 3.72 | 0.17 | 0.612 | 4.71 | 18.5 | 2.35 | 18.1 | 0.413 | 1.78 | 0.352 | 2.07
14 | O=C1CCCN1CC#CCN1CCCC1 | > 100 | > 100 | > 100 | > 100 | > 100 | > 100 | > 100 | > 100 | > 100 | > 100 | > 100 | > 100 | > 100 | > 100 | > 100 | > 100 | > 100 | > 100 | > 100 | > 100
15 | CCCCCCN(CCCCCC)CC(O)c1ccc2c3c(cccc13)CC2 (stereo not given) | 3.83 | 15.2 | 3.32 | 13.8 | 13.6 | 27.1 | 11.2 | 24.9 | 6.15 | 20.2 | 3.42 | 14.6 | 2.31 | 12 | 7.04 | 22 | 3.14 | 13.2 | 2.39 | 7.21
16 | CC(=O)Nc1ccc(S(=O)(=O)NNC(=O)c2cccnc2Nc2ccc(Cl)cc2)cc1 | 15.5 | 75.5 | 6.35 | > 100 | 5.54 | > 100 | 23.4 | > 100 | 48 | > 100 | 24 | > 100 | 18.4 | 76.1 | 59.3 | > 100 | 6.44 | > 100 | 37.3 | > 100
17 | C=C1C(=O)O[C@H]2C[C@@]3(C)[C@H](O)CCC(=C)[C@@H]3[C@@H](OC(C)=O)[C@H]12 | – | 10.2 | – | > 20 | – | 29.2 | – | > 65.9 | – | 32 | – | 19.7 | – | 44.2 | – | 29.5 | – | 4.13 | – | 14.7
18 | O=C1CC(=O)OC(c2ccc([N+](=O)[O-])cc2)O1 | 1.98 | 4.3 | 2.62 | 9.09 | 1.44 | 3.12 | 1.93 | 4.08 | 1.81 | 3.36 | 1.68 | 3.17 | 2.76 | 7.72 | 1.94 | 4.23 | 1.38 | 2.72 | 1.77 | 3.23
19 | CC(C)[C@H]1C(=O)N[C@@H](CCCN=C(N)N)C(=O)NCC(=O)N[C@@H](CC(=O)O)C(=O)N[C@H](Cc2ccccc2)C(=O)N1C | > 100 | > 100 | > 100 | > 100 | 0.12 | 0.279 | 31.6 | > 100 | 5.54 | > 100 | 15.5 | > 100 | 0.182 | 1.05 | 2.33 | > 25.3 | 2.32 | 5.7 | 2.63 | > 100
20 | CN1C(=O)C(Cl)(C(Cl)(Cl)S(=O)(=O)O)C(=O)c2ccccc21 (stereo not given) | – | > 100 | – | > 100 | – | > 100 | – | > 100 | – | > 100 | – | > 100 | – | > 100 | – | > 100 | – | > 100 | – | > 100
21 | Cc1ccc2c(c1)C(c1cccc3ccccc13)OC2=O (stereo not given) | – | – | – | > 100 | – | > 100 | – | > 100 | – | > 100 | – | > 100 | – | 83.9 | – | > 100 | – | > 100 | – | 80.4
22 | Cc1cc(N/N=C/c2nc(-c3ccc(Cl)cc3)oc2C)c2cc(Cl)ccc2n1 | 1.88 | 3.46 | 0.344 | 4.84 | 1.68 | 3.68 | 1.99 | 3.86 | 1.55 | 2.99 | 2.01 | 4.18 | 11.7 | 25.1 | 1.94 | 4.16 | 1.89 | 4.27 | 3.57 | 15.8
23 | COc1ccc(C2CC(n3nnnc3-c3ccccc3)=NN2)cc1 (stereo not given) | 2.34 | 5.87 | 35.6 | > 100 | 14.4 | 54 | 13.3 | > 100 | 4.61 | 37.3 | 0.693 | 15.2 | 18.6 | 55.1 | 12.7 | > 100 | 1.16 | 20.4 | 21.1 | 95.6
24 | Cn1cc(CNCC2CCN(c3ncc(C(=O)NO)cn3)CC2)c2ccccc21 | 0.021 | 13.4 | < 0.0124 | > 53.9 | < 0.0108 | 8.62 | 0.0122 | 0.102 | 0.0414 | 8.89 | 0.0117 | 0.0325 | 0.0102 | 0.0274 | 0.0344 | 15.7 | < 0.01 | 0.0615 | < 0.0107 | 0.0385
25 | CCOc1c(Cl)cc(CNC(C)C(O)c2ccccc2)cc1OC (stereo not given) | 16.8 | 34 | 17.1 | 52.5 | 12.7 | 46.9 | 15.3 | 30.8 | 16.1 | 38.9 | 17 | 30.7 | 0.244 | 26.4 | 38.7 | > 100 | 20.7 | 43.3 | 16.4 | 52.1
26 | C=C1C(=O)OC2/C=C(\C=O)CC/C=C(\C)C(O)C[C@@H]12 (stereo not given in full) | – | 27.2 | – | > 27.6 | – | 29 | – | 15.7 | – | 11.6 | – | 18.5 | – | 22.1 | – | 14.5 | – | 3.41 | – | 7.46
27 | COC(=O)CCCCCN=Cc1c(O)c(O)c(C(C)C)c2cc(C)c(-c3c(C)cc4c(C(C)C)c(O)c(O)c(C=NCCCCCC(=O)OC)c4c3O)c(O)c12 | 1.6 | > 32.5 | 1.09 | 9.61 | 2.55 | > 32.5 | 1.95 | > 32.5 | 1.77 | 14.7 | 1.28 | 4.82 | 2.74 | > 32.5 | 1.3 | > 32.5 | 0.968 | 6.52 | 0.851 | 4.65
28 | S=c1nc(-c2cccnc2)[nH][nH]1 | – | – | – | > 100 | – | > 100 | – | > 100 | – | > 100 | – | > 100 | – | > 100 | – | > 100 | – | > 1 | – | > 100
29 | Nc1nc(CCC(=O)Nc2cccc(C(F)(F)F)c2)cc(-c2ccc3ccccc3c2)n1 | – | > 100 | – | > 100 | – | > 100 | – | > 100 | – | > 100 | – | – | – | > 100 | – | > 100 | – | > 100 | – | > 100
30 | CCOC(=O)C(=O)Nc1c(C(C)C)cccc1C(C)C | – | > 100 | – | > 100 | – | > 100 | – | > 100 | – | > 100 | – | – | – | > 100 | – | > 100 | – | > 100 | – | > 100
